In patent publication US10538555B2, “Macrocyclic inhibitors of the PD-1/PD-L1 and CD80(B7-1)/PD-L1 protein/protein interactions” (BRISTOL-MYERS SQUIBB COMPANY, priority 2014, dated 2020):
Where a SMILES comes first, the peptide text is derived from it. Bridges are numbered along the chain shown (N, C = ends). [ ]: non-standard residue; d: D form. Trp(1-Me) = Cn1cc(C[C@H](N)C(=O)O)c2ccccc21; Morpholine(3S-CO) = O=C(O)[C@@H]1COCCN1; Bta = N[C@@H](Cc1csc2ccccc12)C(=O)O; Hyp = O=C(O)[C@@H]1C[C@@H](O)CN1; NMeNle = CCCC[C@H](NC)C(=O)O; Pip = O=C(O)[C@@H]1CCCCN1; NMeA = CN[C@@H](C)C(=O)O; Dap = NC[C@H](N)C(=O)O

biological target: T1, Human PD-L1/PD-1 (Homo sapiens, UniProt Q9NZQ7); experiment: HTRF Human PD-L1/PD-1 binding assay (PD-1-Ig/PD-L1-His); conditions: PD-L1-His 10 nM, PD-1-Ig 20 nM; class symbol; read-out: HTRF Human PD-L1/PD-1 Binding Assay IC50 Range
T1 construct: TVMV protease cleavage site (C); made in house; host or cells: HEK293T cells
Method in brief: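 Compound preincubated 15 min with PD-L1-His (10 nM final), then PD-1-Ig (20 nM final) added for 15 min in dPBS with 0.1% BSA and 0.05% Tween-20. Detection by Eu-cryptate anti-Ig (1 nM) and APC anti-His (20 nM) after 30 min; 665/620 nm HTRF ratio. Proteins expressed in HEK293T.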

T1 sequence (Q9NZQ7 with tags, fused parts or gaps): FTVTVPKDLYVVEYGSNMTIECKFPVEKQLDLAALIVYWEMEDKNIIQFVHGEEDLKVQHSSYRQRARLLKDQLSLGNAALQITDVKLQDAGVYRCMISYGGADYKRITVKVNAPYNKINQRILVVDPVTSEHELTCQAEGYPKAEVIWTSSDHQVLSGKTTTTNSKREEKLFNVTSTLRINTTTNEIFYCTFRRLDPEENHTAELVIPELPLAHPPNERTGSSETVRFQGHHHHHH

| IC50 [nM] | Compound |
| --- | --- |
| 1 to 9.9 | CCCC[C@H]1C(=O)N(C)[C@@H](CCCC)C(=O)N[C@@H](CCC(=O)O)C(=O)N[C@H](C(=O)NCC(N)=O)CSCC(=O)N[C@@H](Cc2ccc(O)cc2)C(=O)N(C)[C@@H](C)C(=O)N[C@@H](CC(=O)O)C(=O)N2CCC[C@H]2C(=O)N[C@@H](Cc2cnc[nH]2)C(=O)N[C@@H](CCC(N)=O)C(=O)N2C[C@H](O)C[C@H]2C(=O)N[C@@H](Cc2c[nH]c3ccccc23)C(=O)N[C@@H](CO)C(=O)N[C@@H](Cc2cn(C)c3ccccc23)C(=O)N1C [Example 1500] ({CH2CO}-Y[NMeA]DPHQ[Hyp]WS[Trp(1-Me)][NMeNle][NMeNle]ECG-NH2; thioether N-14) |
| 10 to 99.9 | CCCC[C@H]1C(=O)N(C)[C@@H](CCCC)C(=O)N[C@@H](C)C(=O)N[C@H](C(=O)NCC(N)=O)CSCC(=O)N[C@@H](Cc2ccc(O)cc2)C(=O)N(C)[C@@H](C)C(=O)N[C@@H](CC(=O)O)C(=O)N2CCC[C@H]2C(=O)N[C@@H](Cc2c[nH]cn2)C(=O)N[C@@H](CCC(N)=O)C(=O)N2C[C@H](O)C[C@H]2C(=O)N[C@@H](Cc2c[nH]c3ccccc23)C(=O)N[C@@H](CO)C(=O)N[C@@H](Cc2cn(C)c3ccccc23)C(=O)N1C [Example 1501] ({CH2CO}-Y[NMeA]DPHQ[Hyp]WS[Trp(1-Me)][NMeNle][NMeNle]ACG-NH2; thioether N-14) |
| 10 to 99.9 | CCCC[C@H]1C(=O)N(C)[C@@H](CCCC)C(=O)N[C@@H](C)C(=O)N[C@H](C(=O)NCC(N)=O)CSCC(=O)N[C@@H](Cc2ccc(O)cc2)C(=O)N2CCCC[C@H]2C(=O)N[C@@H](CC(=O)O)C(=O)N2CCC[C@H]2C(=O)N[C@@H](Cc2cnc[nH]2)C(=O)N[C@@H](CCC(N)=O)C(=O)N2C[C@H](O)C[C@H]2C(=O)N[C@@H](Cc2c[nH]c3ccccc23)C(=O)N[C@@H](CO)C(=O)N[C@@H](Cc2cn(C)c3ccccc23)C(=O)N1C [Example 1502] ({CH2CO}-Y[Pip]DPHQ[Hyp]WS[Trp(1-Me)][NMeNle][NMeNle]ACG-NH2; thioether N-14) |
| 1 to 9.9 | CCCC[C@H]1C(=O)N(C)[C@@H](CCCC)C(=O)N[C@@H](CC(C)C)C(=O)N[C@H](C(=O)NCC(N)=O)CSCC(=O)N[C@@H](Cc2ccc(O)cc2)C(=O)N(C)[C@@H](C)C(=O)N[C@@H](CC(=O)O)C(=O)N2CCC[C@H]2C(=O)N[C@@H](Cc2cnc[nH]2)C(=O)N[C@@H](CCC(N)=O)C(=O)N2C[C@H](O)C[C@H]2C(=O)N[C@@H](Cc2c[nH]c3ccccc23)C(=O)N[C@@H](CO)C(=O)N[C@@H](Cc2cn(C)c3ccccc23)C(=O)N1C [Example 1503] ({CH2CO}-Y[NMeA]DPHQ[Hyp]WS[Trp(1-Me)][NMeNle][NMeNle]LCG-NH2; thioether N-14) |
| 10 to 99.9 | CCCC[C@H]1C(=O)N(C)[C@@H](CCCC)C(=O)N[C@@H](CCC(=O)O)C(=O)N[C@H](C(=O)NCC(N)=O)CSCC(=O)N[C@@H](Cc2ccc(O)cc2)C(=O)N2CCCC[C@H]2C(=O)N[C@@H](CC(N)=O)C(=O)N2CCC[C@H]2C(=O)N[C@@H](Cc2cnc[nH]2)C(=O)N[C@@H](CCC(=O)O)C(=O)N2C[C@H](O)C[C@H]2C(=O)N[C@@H](Cc2c[nH]c3ccccc23)C(=O)N[C@@H](CO)C(=O)N[C@@H](Cc2cn(C)c3ccccc23)C(=O)N1C [Example 1504] ({CH2CO}-Y[Pip]NPHE[Hyp]WS[Trp(1-Me)][NMeNle][NMeNle]ECG-NH2; thioether N-14) |
| 1 to 9.9 | CCCC[C@H]1C(=O)N(C)[C@@H](CCCC)C(=O)N[C@@H](CCC(=O)O)C(=O)N[C@H](C(=O)NCC(N)=O)CSCC(=O)N[C@@H](Cc2ccc(O)cc2)C(=O)N2CCCC[C@H]2C(=O)N[C@@H](CC(=O)O)C(=O)N2CCC[C@H]2C(=O)N[C@@H](Cc2cnc[nH]2)C(=O)N[C@@H](CCC(=O)O)C(=O)N2C[C@H](O)C[C@H]2C(=O)N[C@@H](Cc2c[nH]c3ccccc23)C(=O)N[C@@H](CO)C(=O)N[C@@H](Cc2cn(C)c3ccccc23)C(=O)N1C [Example 1505] ({CH2CO}-Y[Pip]DPHE[Hyp]WS[Trp(1-Me)][NMeNle][NMeNle]ECG-NH2; thioether N-14) |
| 1 to 9.9 | CCCC[C@H]1C(=O)N(C)[C@@H](CCCC)C(=O)N[C@@H](CCC(=O)O)C(=O)N[C@H](C(=O)NCC(N)=O)CSCC(=O)N[C@@H](Cc2ccc(O)cc2)C(=O)N2CCCC[C@H]2C(=O)N[C@@H](CC(=O)O)C(=O)N2CCC[C@H]2C(=O)N[C@@H](CO)C(=O)N[C@@H](CCC(N)=O)C(=O)N2C[C@H](O)C[C@H]2C(=O)N[C@@H](Cc2c[nH]c3ccccc23)C(=O)N[C@@H](CO)C(=O)N[C@@H](Cc2csc3ccccc23)C(=O)N1C [Example 1506] ({CH2CO}-Y[Pip]DPSQ[Hyp]WS[Bta][NMeNle][NMeNle]ECG-NH2; thioether N-14) |
| 1 to 9.9 | CCCC[C@H]1C(=O)N(C)[C@@H](CCCC)C(=O)N[C@@H](C)C(=O)N[C@H](C(=O)NCC(N)=O)CSCC(=O)N[C@@H](Cc2ccc(O)cc2)C(=O)N2CCCC[C@H]2C(=O)N[C@@H](CC(=O)O)C(=O)N2CCC[C@H]2C(=O)N[C@@H](CN)C(=O)N[C@@H](CCC(N)=O)C(=O)N2C[C@H](O)C[C@H]2C(=O)N[C@@H](Cc2c[nH]c3ccccc23)C(=O)N[C@@H](CO)C(=O)N[C@@H](Cc2csc3ccccc23)C(=O)N1C [Example 1507] ({CH2CO}-Y[Pip]DP[Dap]Q[Hyp]WS[Bta][NMeNle][NMeNle]ACG-NH2; thioether N-14) |
| 1 to 9.9 | CCCC[C@H]1C(=O)N(C)[C@@H](CCCC)C(=O)N[C@@H](C)C(=O)N[C@H](C(=O)NCC(N)=O)CSCC(=O)N[C@@H](Cc2ccc(O)cc2)C(=O)N2CCCC[C@H]2C(=O)N[C@@H](CC(=O)O)C(=O)N2CCC[C@H]2C(=O)N[C@@H](Cc2cnc[nH]2)C(=O)N[C@@H](CCC(N)=O)C(=O)N2C[C@H](O)C[C@H]2C(=O)N[C@@H](Cc2c[nH]c3ccccc23)C(=O)N[C@@H](CO)C(=O)N[C@@H](Cc2csc3ccccc23)C(=O)N1C [Example 1508] ({CH2CO}-Y[Pip]DPHQ[Hyp]WS[Bta][NMeNle][NMeNle]ACG-NH2; thioether N-14) |
| 10 to 99.9 | CCCC[C@H]1C(=O)N(C)[C@@H](CCCC)C(=O)N[C@@H](C)C(=O)N[C@H](C(=O)NCC(N)=O)CSCC(=O)N[C@@H](Cc2ccc(O)cc2)C(=O)N2CCCC[C@H]2C(=O)N[C@@H](CC(=O)O)C(=O)N2CCC[C@H]2C(=O)N[C@@H](Cc2cnc[nH]2)C(=O)N[C@@H](CCC(N)=O)C(=O)N2C[C@H](O)C[C@H]2C(=O)N[C@@H](Cc2c[nH]c3ccccc23)C(=O)N[C@@H](CO)C(=O)N[C@@H](Cc2csc3ccccc23)C(=O)N1C [Example 1509] ({CH2CO}-Y[Pip]DPHQ[Hyp]WS[Bta][NMeNle][NMeNle]ACG-NH2; thioether N-14) |
| 1 to 9.9 | CCCC[C@H]1C(=O)N(C)[C@@H](CCCC)C(=O)N[C@@H](C)C(=O)N[C@H](C(=O)NCC(N)=O)CSCC(=O)N[C@@H](Cc2ccc(O)cc2)C(=O)N2CCCC[C@H]2C(=O)N[C@@H](CC(=O)O)C(=O)N2CCC[C@H]2C(=O)N[C@@H](CN)C(=O)N[C@@H](CCC(=O)O)C(=O)N2C[C@H](O)C[C@H]2C(=O)N[C@@H](Cc2c[nH]c3ccccc23)C(=O)N[C@@H](CO)C(=O)N[C@@H](Cc2csc3ccccc23)C(=O)N1C [Example 1510] ({CH2CO}-Y[Pip]DP[Dap]E[Hyp]WS[Bta][NMeNle][NMeNle]ACG-NH2; thioether N-14) |
| 1 to 9.9 | CCCC[C@H]1C(=O)N(C)[C@@H](CCCC)C(=O)N[C@@H](CC(C)C)C(=O)N[C@H](C(=O)NCC(N)=O)CSCC(=O)N[C@@H](Cc2ccc(O)cc2)C(=O)N2CCCC[C@H]2C(=O)N[C@@H](CC(=O)O)C(=O)N2CCC[C@H]2C(=O)N[C@@H](Cc2cnc[nH]2)C(=O)N[C@@H](CCC(N)=O)C(=O)N2C[C@H](O)C[C@H]2C(=O)N[C@@H](Cc2c[nH]c3ccccc23)C(=O)N[C@@H](CO)C(=O)N[C@@H](Cc2csc3ccccc23)C(=O)N1C [Example 1511] ({CH2CO}-Y[Pip]DPHQ[Hyp]WS[Bta][NMeNle][NMeNle]LCG-NH2; thioether N-14) |
| 10 to 99.9 | CCCC[C@H]1C(=O)N(C)[C@@H](CCCC)C(=O)N[C@@H](CCC(=O)O)C(=O)N[C@H](C(=O)NCC(N)=O)CSCC(=O)N[C@@H](Cc2ccc(O)cc2)C(=O)N2CCCC[C@H]2C(=O)N[C@@H](CC(=O)O)C(=O)N2CCC[C@H]2C(=O)N[C@@H](Cc2cnc[nH]2)C(=O)N[C@@H](CCC(=O)O)C(=O)N2C[C@H](O)C[C@H]2C(=O)N[C@@H](Cc2c[nH]c3ccccc23)C(=O)N[C@@H](CO)C(=O)N[C@@H](Cc2csc3ccccc23)C(=O)N1C [Example 1512] ({CH2CO}-Y[Pip]DPHE[Hyp]WS[Bta][NMeNle][NMeNle]ECG-NH2; thioether N-14) |
| 1 to 9.9 | CCCC[C@H]1C(=O)N(C)[C@@H](CCCC)C(=O)N[C@@H](C)C(=O)N[C@H](C(=O)NCC(N)=O)CSCC(=O)N[C@@H](Cc2ccc(O)cc2)C(=O)N2CCOC[C@H]2C(=O)N[C@@H](CC(=O)O)C(=O)N2CCC[C@H]2C(=O)N[C@@H](Cc2cnc[nH]2)C(=O)N[C@@H](CCC(N)=O)C(=O)N2C[C@H](O)C[C@H]2C(=O)N[C@@H](Cc2c[nH]c3ccccc23)C(=O)N[C@@H](CO)C(=O)N[C@@H](Cc2c[nH]c3ccccc23)C(=O)N1C [Example 1514] ({CH2CO}-Y[Morpholine(3S-CO)]DPHQ[Hyp]WSW[NMeNle][NMeNle]ACG-NH2; thioether N-14) |

same assay, conditions: PD-L1-His 10 nM, PD-1-Ig 20 nM; read-out: HTRF Human PD-L1/PD-1 Binding Assay IC50

| IC50 [nM] | Compound |
| --- | --- |
| 5.3 | CCCC[C@H]1C(=O)N(C)[C@@H](CCCC)C(=O)N[C@@H](CCC(=O)O)C(=O)N[C@H](C(=O)NCC(N)=O)CSCC(=O)N[C@@H](Cc2ccc(O)cc2)C(=O)N2CCCC[C@H]2C(=O)N[C@@H](CC(=O)O)C(=O)N2CCC[C@H]2C(=O)N[C@@H](Cc2cnc[nH]2)C(=O)N[C@@H](CCC(N)=O)C(=O)N2C[C@H](O)C[C@H]2C(=O)N[C@@H](Cc2c[nH]c3ccccc23)C(=O)N[C@@H](CO)C(=O)N[C@@H](Cc2csc3ccccc23)C(=O)N1C [Example 1513] ({CH2CO}-Y[Pip]DPHQ[Hyp]WS[Bta][NMeNle][NMeNle]ECG-NH2; thioether N-14) |
